# Measured values from ChEMBL document CHEMBL1147420, “Synthesis and biological evaluation of novel coumarin derivatives with a 7-azomethine linkage” (2004).
# Tests used:
# Format in all cases: functional
# [1] = Compound was evaluated for percent inhibition of carrageenan induced rat paw edema at 0.005 mmol/kg
# [2] = Interaction percent with DPPH after 60 minutes was determined at 0.1 mM concentration
# [3] = molecular target: Serine protease 1 (Homo sapiens) (UniProt P07477); experiment: Compound was evaluated for in vitro inhibition of trypsin acting as esterase at 1 mM concentration
# [4] = Interaction percent with DPPH after 60 minutes was determined at 0.2 mM concentration
# [5] = Competition percent of compound with DMSO for hydroxyl radical was determined at 0.01 mM concentration
# [6] = molecular target: Chymotrypsinogen B (Homo sapiens) (UniProt P17538); experiment: Compound was evaluated for in vitro inhibition of chymotrypsinogen acting as esterase at 0.1 mM concentration
# [7] = Interaction percent with DPPH after 20 minutes was determined at 0.5 mM concentration
# [8] = molecular target: Chymotrypsinogen B (Homo sapiens) (UniProt P17538); experiment: Compound was evaluated for in vitro inhibition of chymotrypsinogen acting as esterase at 1 mM concentration
# [9] = molecular target: Chymotrypsinogen B (Homo sapiens) (UniProt P17538); experiment: Compound was evaluated for in vitro inhibition of chymotrypsinogen induced proteolysis at 1 mM concentration
# [10] = molecular target: T1, Seed linoleate 13S-lipoxygenase-1 (Glycine max) (UniProt P08170); experiment: Compound was evaluated for in vitro inhibition of soybean lipoxygenase at 0.1 mM concentration
# T1 sequence (whole entry): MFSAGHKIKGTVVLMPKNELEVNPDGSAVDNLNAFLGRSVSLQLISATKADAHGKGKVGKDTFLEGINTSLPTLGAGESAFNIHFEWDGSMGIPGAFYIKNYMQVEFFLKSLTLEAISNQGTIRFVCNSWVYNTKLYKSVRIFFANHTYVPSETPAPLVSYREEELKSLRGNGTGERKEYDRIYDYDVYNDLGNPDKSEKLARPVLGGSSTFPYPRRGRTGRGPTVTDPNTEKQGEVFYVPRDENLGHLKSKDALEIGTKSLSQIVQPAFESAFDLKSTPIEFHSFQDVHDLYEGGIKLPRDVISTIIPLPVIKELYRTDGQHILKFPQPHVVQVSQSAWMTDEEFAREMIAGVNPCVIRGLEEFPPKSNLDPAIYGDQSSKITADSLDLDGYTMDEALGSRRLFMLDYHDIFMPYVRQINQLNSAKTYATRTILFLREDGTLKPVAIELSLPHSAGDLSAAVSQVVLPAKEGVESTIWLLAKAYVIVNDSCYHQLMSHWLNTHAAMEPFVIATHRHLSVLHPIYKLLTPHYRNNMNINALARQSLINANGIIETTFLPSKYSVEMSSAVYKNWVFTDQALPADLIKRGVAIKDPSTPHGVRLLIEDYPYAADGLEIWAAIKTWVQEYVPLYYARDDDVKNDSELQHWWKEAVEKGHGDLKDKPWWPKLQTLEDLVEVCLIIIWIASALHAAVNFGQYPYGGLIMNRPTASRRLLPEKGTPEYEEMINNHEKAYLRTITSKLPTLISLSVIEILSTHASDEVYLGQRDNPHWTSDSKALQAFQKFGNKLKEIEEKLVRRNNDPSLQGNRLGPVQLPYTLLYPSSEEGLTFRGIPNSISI
# [11] = Interaction percent with DPPH after 20 minutes was determined at 0.1 mM concentration
# [12] = molecular target: Serine protease 1 (Homo sapiens) (UniProt P07477); experiment: Compound was evaluated for in vitro inhibition of trypsin acting as esterase at 0.1 mM concentration
# [13] = molecular target: Chymotrypsinogen B (Homo sapiens) (UniProt P17538); experiment: Compound was evaluated for in vitro inhibition of chymotrypsinogen induced proteolysis at 0.1 mM concentration
# [14] = Interaction percent with DPPH after 60 minutes was determined at 0.5 mM concentration
# [15] = Competition percent of compound with DMSO for hydroxyl radical was determined at 0.1 mM concentration
# [16] = molecular target: Serine protease 1 (Homo sapiens) (UniProt P07477); experiment: Compound was evaluated for in vitro inhibition of trypsin induced proteolysis at 1 mM concentration
# [17] = molecular target: Serine protease 1 (Homo sapiens) (UniProt P07477); experiment: Compound was evaluated for in vitro inhibition of trypsin induced proteolysis at 0.1 mM concentration
# [18] = molecular target: T2, Beta-glucuronidase (Bos taurus) (UniProt A3KMY8); experiment: Compound was evaluated for in vitro inhibition of beta-glucuronidase at 0.1 mM concentration; […]
# T2 sequence (whole entry): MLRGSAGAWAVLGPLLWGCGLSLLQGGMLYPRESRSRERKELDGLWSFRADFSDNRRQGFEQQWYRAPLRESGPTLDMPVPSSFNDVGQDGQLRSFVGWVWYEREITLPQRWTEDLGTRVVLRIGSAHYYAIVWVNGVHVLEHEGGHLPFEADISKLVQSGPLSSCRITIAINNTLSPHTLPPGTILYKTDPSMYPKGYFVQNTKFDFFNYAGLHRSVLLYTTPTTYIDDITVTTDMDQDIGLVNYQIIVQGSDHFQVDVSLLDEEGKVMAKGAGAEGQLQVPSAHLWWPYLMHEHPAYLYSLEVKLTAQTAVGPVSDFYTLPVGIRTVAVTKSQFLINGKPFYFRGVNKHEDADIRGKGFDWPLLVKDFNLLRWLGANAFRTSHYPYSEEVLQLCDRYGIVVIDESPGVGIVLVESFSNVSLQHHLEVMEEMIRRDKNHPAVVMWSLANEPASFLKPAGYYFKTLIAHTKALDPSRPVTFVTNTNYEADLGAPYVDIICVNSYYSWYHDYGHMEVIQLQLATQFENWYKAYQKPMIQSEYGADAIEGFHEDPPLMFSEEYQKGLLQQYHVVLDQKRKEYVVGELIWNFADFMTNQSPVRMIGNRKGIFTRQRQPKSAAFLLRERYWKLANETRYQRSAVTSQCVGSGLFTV
# [19] = Interaction percent with DPPH after 20 minutes was determined at 0.2 mM concentration
# [20] = molecular target: T1, Seed linoleate 13S-lipoxygenase-1 (Glycine max); experiment: Compound was evaluated for in vitro inhibition of soybean lipoxygenase at 1 mM concentration
# [21] = molecular target: T2, Beta-glucuronidase (Bos taurus); experiment: Compound was evaluated for in vitro inhibition of beta-glucuronidase at 1 mM concentration
# [22] = molecular target: Chymotrypsinogen B (Homo sapiens) (UniProt P17538); experiment: Compound was evaluated for in vitro inhibition of chymotrypsinogen induced proteolysis at 0.1 mM concentration; no action
# [23] = molecular target: T1, Seed linoleate 13S-lipoxygenase-1 (Glycine max); experiment: Compound was evaluated for in vitro inhibition of soybean lipoxygenase at 0.1 mM concentration; no action
# [24] = molecular target: T2, Beta-glucuronidase (Bos taurus); experiment: Compound was evaluated for in vitro inhibition of beta-glucuronidase at 0.1 mM concentration
# [25] = molecular target: Serine protease 1 (Homo sapiens) (UniProt P07477); experiment: Compound was evaluated for in vitro inhibition of trypsin induced proteolysis at 0.1 mM concentration; no action
# [26] = Competition percent of compound with DMSO for hydroxyl radical was determined at 0.1 mM concentration; No result
# Chain of Chymotrypsinogen B (Homo sapiens) (P17538 34-164 limits assumed, other chains not shown): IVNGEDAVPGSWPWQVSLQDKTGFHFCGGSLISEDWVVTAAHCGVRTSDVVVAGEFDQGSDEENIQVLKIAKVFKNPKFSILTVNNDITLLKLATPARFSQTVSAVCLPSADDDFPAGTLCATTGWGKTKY
# Chain of Chymotrypsinogen B (Homo sapiens) (P17538 167-263 limits assumed, other chains not shown): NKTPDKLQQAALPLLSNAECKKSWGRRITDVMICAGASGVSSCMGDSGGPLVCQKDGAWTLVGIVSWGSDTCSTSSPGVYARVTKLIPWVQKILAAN
# Chain of Serine protease 1 (Homo sapiens) (P07477 whole entry): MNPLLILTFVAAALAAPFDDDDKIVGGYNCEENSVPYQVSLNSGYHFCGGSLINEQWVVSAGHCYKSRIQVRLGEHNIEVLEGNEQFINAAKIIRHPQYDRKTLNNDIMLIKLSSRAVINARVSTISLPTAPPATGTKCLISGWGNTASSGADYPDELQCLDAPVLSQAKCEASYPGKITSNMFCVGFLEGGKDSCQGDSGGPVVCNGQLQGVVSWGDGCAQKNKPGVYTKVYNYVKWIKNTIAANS
SMILES,inhibition in vivo at 5 µmol/kg [1],RA [2],inhibition [3],RA [4],Competition [5],inhibition [6],RA [7],inhibition [8],inhibition [9],inhibition [10],RA [11],inhibition [12],inhibition [13],RA [14],Competition [15],inhibition [16],inhibition [17],RA [19],inhibition [20],inhibition [21],other results
O=c1ccc2ccc(/C=N/O)cc2o1,58.6%,4.8%,98.5%,7.1%,43.4%,28.5%,9.7%,100%,98.7%,37.2%,0.29%,20.3%,37.4%,12.8%,50.8%,77.7%,70.7%,3.52%,98.8%,100%,inhibition [18]: No action
Cc1ccc2ccc(=O)oc2c1,55.1%,2.5%,88.7%,5.4%,30.2%,16.4%,2.05%,97.7%,97.4%,73.5%,0.29%,13.6%,48.1%,3.5%,43.8%,100%,90.4%,1.61%,88.9%,95.9%,inhibition [18]: No action
O=c1ccc2ccccc2o1 [COUMARIN],30.2%,21%,98%,–,–,28.5%,5.8%,63.9%,89.3%,–,4.9%,5%,No action,6.7%,78%,95.9%,12.7%,–,15.1%,–,–
CO/N=C/c1ccc2ccc(=O)oc2c1,31.1%,9.8%,99.9%,11.6%,85.6%,16.6%,13.9%,100%,56.9%,–,12.7%,25.5%,–,11.9%,90.2%,100%,100%,14.5%,100%,94.1%,inhibition [22]: No action; inhibition [23]: No action; inhibition [24]: 21.9%
CC(O)Cc1ccc2ccc(=O)oc2c1 (stereo not given),18%,13.3%,99.4%,16.8%,80.7%,31.3%,22.9%,100%,63.1%,–,14.5%,29.3%,–,25.6%,81.8%,95.4%,41.1%,18.4%,100%,92.3%,inhibition [22]: No action; inhibition [23]: No action; inhibition [24]: 7.5%
O=Cc1ccc2ccc(=O)oc2c1,29.3%,3.5%,99.1%,7.1%,33.9%,22.7%,16.2%,98.9%,96.6%,8.6%,1.47%,12.6%,32.8%,12.8%,35.2%,100%,83.4%,2.49%,89.7%,98.9%,inhibition [18]: No action
CN/N=C/c1ccc2ccc(=O)oc2c1,54.7%,80.7%,97.6%,86.7%,97.3%,10%,92.4%,83.4%,93.9%,70.8%,69.7%,22.6%,–,87.3%,–,100%,–,84.8%,100%,93.3%,inhibition [25]: No action; inhibition [22]: No action; inhibition [24]: 6.9%; Competition [26]: No results
O=c1ccc2ccc(/C=N/c3ccccc3)cc2o1,42.5%,10%,97.6%,10.6%,72.2%,10%,14.3%,83.4%,73.9%,54.3%,12.9%,22.6%,90.5%,11.6%,89.6%,95.9%,35.3%,13.5%,100%,95.4%,inhibition [24]: 26.1%
COc1ccc2c(c1)c(CC(=O)O)c(C)n2C(=O)c1ccc(Cl)cc1 [INDOMETHACIN],47%,–,–,–,–,–,–,–,–,–,–,–,–,–,–,–,–,–,–,–,–
O=c1ccc2ccc(/C=N/Nc3ccccc3)cc2o1,35.2%,56.2%,99.9%,64.4%,15.4%,30.6%,78.7%,88.7%,80.1%,77.4%,36.2%,31.4%,–,79.1%,65.5%,64.5%,–,48.9%,71.2%,96.8%,inhibition [25]: No action; inhibition [22]: No action; inhibition [24]: 5.9%
O=c1ccc2ccc(/C=N/N=C/c3ccc4ccc(=O)oc4c3)cc2o1,54%,9.9%,65.4%,8.4%,44.5%,29.9%,64.4%,65.2%,100%,8.6%,7.04%,9.4%,24.5%,67.5%,45.3%,100%,99.9%,6.3%,10.2%,100%,inhibition [24]: 2.3%
